System: cos-7 cells
Assay: DNA transfection: luciferase expression relative to Lipofectamine 2000
Format: cell-based
Conditions: for % of the luciferase activity obtained from the use of Lipofectamine 2000: 300 ng DNA per well; for % of the luciferase activity obtained from the use of Lipofectamine 2000 / Luciferase expression as a percentage of that achieved using Lipofectamine 2000: luciferase assay after 48 hours; for luciferase expression (second part of table, values relative to LIPO2000): 300 ng of DNA per well; for Luciferase expression as a percentage of that achieved using Lipofectamine 2000: 300 ng Luciferase DNA per well
Method: 14,000 cos-7 cells (ATCC, Manassas, Va.) were seeded into each well of a solid white or clear 96 well plate (Corning-Costar, Kennebunk, Me.) and allowed to attached overnight in growth medium, composed of: 500 ml phenol red minus DMEM, 50 ml heat inactivated FBS, 5 ml penicillin/streptomycin (Invitrogen, Carlsbad, Calif.).
A small liquot of lipid was tranferred to an Eppendorf tube. Based on the mass of the lipid in the tube, sterile 25 mM sodium acetate buffer was added to each tube to yield a concentration of 60 mg/ml. The resulting mixture was vortexed for approximately 20 minutes until the lipid was fully dissolved. DNA was prepared based on 300 ng DNA per well of a 96-well plate. 291 μg of Lc DNA was dissolved in 9210 μl of 25 mM sodium acetate buffer. Aliquots of 30 μl of DNA solution were added to each well expect for the last column which was reserved for the Lipo2000 standard. For the last column of the plate, 61 μg of DNA was added to 1940 μl Optimem. 150 μl of media/Optimem was added to each well of plates. 50 μl of lipid solution was aliquoted into wells of robot plate. The following amounts were aliquoted to obtain the correct ratios of DNA to lipid:
In quadruplicate, 30 μl of lipid was aliquoted onto DNA in four rows for each ratio. For the Lipo2000 control (2.5 w/w ratio to DNA), 152.5 μg of Lipo sample was aliquoted into 1847.5 μl of Optimem. 30 μl of this solution was aliquoted onto DNA in the Optimem in the last columns of each plate. The plates were incubated for 15-20 minutes, and then 36.5 μl of lipid+DNA complexes was transferred into 150 μl of media/Optimem, then add to cells. The media was aspirated off the cells, and 105 μl of the lipid/DNA/media/Optimem solution was added to the cells. The luciferase assay was performed after 48 hours.
Luminescence was analyzed using bright-glo assay kits (Promega). Briefly, 100 μl of bright-glo solution was added to each well of the microtiter plate containing media and cells. Luminescence was measured using a Mithras Luminometer (Berthold, Oak Ridge, Tenn.). In some cases, a neutral density filter (Chroma, Brattleboro, Vt.) was used to prevent saturation of the luminometer. A standard curve for Luciferase was generated by titration of Luciferase enzyme (Promega) into growth media in white microtiter plates. Luciferase in ng per well are calculated for each of the lipids at 2.5 w/w, 5 w/w, 10 w/w, 15 w/w, 20 w/w, and 25 w/w lipid to DNA based on the standard curve.
The table below summarizes the data as a % of the luciferase activity obtained from the use of Lipofectamine 2000. The table indicates the best lipids for transfection.

SMILES	% of the luciferase activity obtained from the use of Lipofectamine 2000 (2.5 w/w lipid to DNA) [%]	% of the luciferase activity obtained from the use of Lipofectamine 2000 (5 w/w lipid to DNA) [%]	% of the luciferase activity obtained from the use of Lipofectamine 2000 (10 w/w lipid to DNA) [%]	% of the luciferase activity obtained from the use of Lipofectamine 2000 (15 w/w lipid to DNA) [%]	% of the luciferase activity obtained from the use of Lipofectamine 2000 (20 w/w lipid to DNA) [%]	% of the luciferase activity obtained from the use of Lipofectamine 2000 (25 w/w lipid to DNA) [%]	luciferase expression (second part of table, values relative to LIPO2000) (lipid/DNA 2.5 w/w)	luciferase expression (second part of table, values relative to LIPO2000) (lipid/DNA 5 w/w)	luciferase expression (second part of table, values relative to LIPO2000) (lipid/DNA 10 w/w)	luciferase expression (second part of table, values relative to LIPO2000) (lipid/DNA 15 w/w)	luciferase expression (second part of table, values relative to LIPO2000) (lipid/DNA 20 w/w)	luciferase expression (second part of table, values relative to LIPO2000) (lipid/DNA 25 w/w)	Luciferase expression as a percentage of that achieved using Lipofectamine 2000 (lipid/DNA 2.5 w/w) [%]	Luciferase expression as a percentage of that achieved using Lipofectamine 2000 (lipid/DNA 5 w/w) [%]	Luciferase expression as a percentage of that achieved using Lipofectamine 2000 (lipid/DNA 10 w/w) [%]	Luciferase expression as a percentage of that achieved using Lipofectamine 2000 (lipid/DNA 15 w/w) [%]	Luciferase expression as a percentage of that achieved using Lipofectamine 2000 (lipid/DNA 20 w/w) [%]	Luciferase expression as a percentage of that achieved using Lipofectamine 2000 (lipid/DNA 25 w/w) [%]
CCCCCCCCCCCCCCCOC(=O)CC[N+](C)(CCC[N+](C)(CCO)CCO)CCC(=O)OCCCCCCCCCCCCCCC [QG87]	89.0	94.0	42.4	64.7	62.1	44.1	89.0	94.0	42.4	64.7	62.1	44.1	–	–	–	–	–	–
CCCCCCCCCCCCCCOC(=O)CCN(CCCN(CCO)CCO)CCC(=O)OCCCCCCCCCCCCCC [LF87]	–	–	–	–	–	–	–	–	–	–	–	–	19.4	11.3	30.2	13.3	11.0	10.0
CCCCCCCCCCOC(=O)CCN(CCC(=O)OCCCCCCCCCC)CCN(CC)CC [LB75]	–	–	–	–	–	–	–	–	–	–	–	–	0.1	0.1	0.1	0.1	0.1	0.1
CCCCCCCCCCOC(=O)CCN(CCCCCO)CCC(=O)OCCCCCCCCCC [LB32]	–	–	–	–	–	–	–	–	–	–	–	–	0.1	0.1	0.1	0.1	0.1	0.1
CCCCCCCCCCCCOC(=O)CCN(CCCn1ccnc1)CCC(=O)OCCCCCCCCCCCC [LD93]	–	–	–	–	–	–	–	–	–	–	–	–	1.8	4.2	3.9	24.6	15.8	10.8
CCCCCCCCCCOC(=O)CCN(CCC(=O)OCCCCCCCCCC)C(C)CN(C)C (stereo not drawn) [LB79]	–	–	–	–	–	–	–	–	–	–	–	–	0.1	0.1	0.1	0.1	0.1	0.1
CCCCCCCCCCCCOC(=O)CCN(CCC(=O)OCCCCCCCCCCCC)CCC1CCCN1C (stereo not drawn) [LD77]	–	–	–	–	–	–	–	–	–	–	–	–	0.1	0.1	6.9	11.1	6.4	2.9
CCCCCCCCCCOC(=O)CCN(CCCCO)CCC(=O)OCCCCCCCCCC [LB28]	–	–	–	–	–	–	–	–	–	–	–	–	0.1	0.1	0.1	0.1	0.1	0.1
CCCCCCCCCCCCCCOC(=O)CCN(C)CCN(C)CCC(=O)OCCCCCCCCCCCCCC [LF60]	–	–	–	–	–	–	–	–	–	–	–	–	0.4	0.4	0.5	0.5	0.5	0.5
CCCCCCCCCCCCOC(=O)CCN(CCCN(C)C)CCC(=O)OCCCCCCCCCCCC [LD80]	–	–	–	–	–	–	–	–	–	–	–	–	0.1	0.1	3.7	6.5	7.1	2.1
CCCCCCCCCCOC(=O)CCN(CCC(=O)OCCCCCCCCCC)CCC1OCCO1 [LB6]	–	–	–	–	–	–	–	–	–	–	–	–	0.1	0.1	0.1	0.1	0.1	0.1
CCCCCCCCCCCCCCOC(=O)CCN(CCC(=O)OCCCCCCCCCCCCCC)CC(OC)OC [LF13]	–	–	–	–	–	–	–	–	–	–	–	–	0.1	0.1	0.0	0.0	0.1	0.1
CCCCCCCCCCCCOC(=O)CCN(CCN(CCC(=O)OCCCCCCCCCCCC)C(C)C)C(C)C [LD62]	–	–	–	–	–	–	–	–	–	–	–	–	0.4	0.4	0.4	0.4	0.4	0.5

From US9006487B2, “Amine-containing lipids and uses thereof” (Massachusetts Institute of Technology, priority 2005, dated 2015)
